Earlier results in US10227338B2, “Substituted benzenesulfonamides as sodium channel blockers” (Daewoong Pharmaceutical Co., Ltd., priority 2015, dated 2019).

Test system: neuropathic pain

Question: For `NCC1(CC(=O)O)CCCCC1` [gabapentin], which “effective for % of the patients” value is on record?
Answer: The value was 60%.
